{
  "source": "the supplement of paper PMC10307832",
  "assay_in_all_cases": "relative viability (nuclei count vs DMSO), 5 days (fraction); higher = more cells survive",
  "key": {"[1]": {"tested_on": "BEN", "outline": "(§1)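 Relative viability is defined as nuclei in treated wells over nuclei in vehicle wells. Duplicate plates were run and medians reported. Lung cancer cell lines in 1536-well plates were dosed by pin tool one day after seeding, with one drug or with a fixed anchor-drug dose plus five library-drug doses (not always all listed) in √10 steps, and nuclei were counted after 5 days.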"}, "[2]": {"tested_on": "EKVX", "outline": "as §1"}, "[3]": {"tested_on": "HARA", "outline": "as §1"}, "[4]": {"tested_on": "HCC-366", "outline": "as §1"}, "[5]": {"tested_on": "HCC-827", "outline": "as §1"}, "[6]": {"tested_on": "LOU-NH91", "outline": "as §1"}, "[7]": {"tested_on": "NCI-H1355", "outline": "as §1"}, "[8]": {"tested_on": "NCI-H1395", "outline": "as §1"}, "[9]": {"tested_on": "NCI-H1437", "outline": "as §1"}, "[10]": {"tested_on": "NCI-H1734", "outline": "as §1"}, "[11]": {"tested_on": "NCI-H1792", "outline": "as §1"}, "[12]": {"tested_on": "NCI-H1993", "outline": "as §1"}, "[13]": {"tested_on": "NCI-H2009", "outline": "as §1"}, "[14]": {"tested_on": "NCI-H2087", "outline": "as §1"}, "[15]": {"tested_on": "NCI-H2405", "outline": "as §1"}, "[16]": {"tested_on": "NCI-H647", "outline": "as §1"}, "[17]": {"tested_on": "NCI-H661", "outline": "as §1"}, "[18]": {"tested_on": "SK-LU-1", "outline": "as §1"}, "[19]": {"tested_on": "SK-MES-1", "outline": "as §1"}},
  "data": [
    {"smiles": "O=c1cc(-c2cccc3c2Sc2ccccc2S3)oc(N2CCOCC2)c1", "note": "+ C[C@]1(O)C[C@@H](c2nc(-c3ccc4ccc(-c5ccccc5)nc4c3)c3c(N)nccn32)C1 [Linsitinib] (partner 1 µM)", "values": [
      {"measurement": "relative viability", "setting": "[1]; first compound 0.08 µM", "result": 0.996},
      {"measurement": "relative viability", "setting": "[1]; first compound 0.253 µM", "result": 1.04},
      {"measurement": "relative viability", "setting": "[1]; first compound 0.8 µM", "result": 1.14},
      {"measurement": "relative viability", "setting": "[1]; first compound 2.53 µM", "result": 0.898},
      {"measurement": "relative viability", "setting": "[1]; first compound 8 µM", "result": 1.23},
      {"measurement": "relative viability", "setting": "[2]; first compound 0.08 µM", "result": 1.17},
      {"measurement": "relative viability", "setting": "[2]; first compound 0.253 µM", "result": 1.13},
      {"measurement": "relative viability", "setting": "[2]; first compound 0.8 µM", "result": 0.818},
      {"measurement": "relative viability", "setting": "[2]; first compound 2.53 µM", "result": 1.02},
      {"measurement": "relative viability", "setting": "[2]; first compound 8 µM", "result": 0.935},
      {"measurement": "relative viability", "setting": "[3]; first compound 0.08 µM", "result": 1.01},
      {"measurement": "relative viability", "setting": "[3]; first compound 0.253 µM", "result": 1.2},
      {"measurement": "relative viability", "setting": "[3]; first compound 0.8 µM", "result": 1.08},
      {"measurement": "relative viability", "setting": "[3]; first compound 2.53 µM", "result": 0.948},
      {"measurement": "relative viability", "setting": "[3]; first compound 8 µM", "result": 0.743},
      {"measurement": "relative viability", "setting": "[4]; first compound 0.08 µM", "result": 0.605},
      {"measurement": "relative viability", "setting": "[4]; first compound 0.253 µM", "result": 1.07},
      {"measurement": "relative viability", "setting": "[4]; first compound 0.8 µM", "result": 0.711},
      {"measurement": "relative viability", "setting": "[4]; first compound 2.53 µM", "result": 0.744},
      {"measurement": "relative viability", "setting": "[4]; first compound 8 µM", "result": 0.573},
      {"measurement": "relative viability", "setting": "[5]; first compound 0.08 µM", "result": 0.892},
      {"measurement": "relative viability", "setting": "[5]; first compound 0.253 µM", "result": 0.979},
      {"measurement": "relative viability", "setting": "[5]; first compound 0.8 µM", "result": 0.925},
      {"measurement": "relative viability", "setting": "[5]; first compound 2.53 µM", "result": 0.848},
      {"measurement": "relative viability", "setting": "[5]; first compound 8 µM", "result": 0.915},
      {"measurement": "relative viability", "setting": "[6]; first compound 0.08 µM", "result": 0.946},
      {"measurement": "relative viability", "setting": "[6]; first compound 0.253 µM", "result": 0.923},
      {"measurement": "relative viability", "setting": "[6]; first compound 0.8 µM", "result": 0.845},
      {"measurement": "relative viability", "setting": "[6]; first compound 2.53 µM", "result": 0.769},
      {"measurement": "relative viability", "setting": "[6]; first compound 8 µM", "result": 0.893},
      {"measurement": "relative viability", "setting": "[7]; first compound 0.08 µM", "result": 0.853},
      {"measurement": "relative viability", "setting": "[7]; first compound 0.253 µM", "result": 0.937},
      {"measurement": "relative viability", "setting": "[7]; first compound 0.8 µM", "result": 0.818},
      {"measurement": "relative viability", "setting": "[7]; first compound 2.53 µM", "result": 0.712},
      {"measurement": "relative viability", "setting": "[7]; first compound 8 µM", "result": 0.689},
      {"measurement": "relative viability", "setting": "[8]; first compound 0.08 µM", "result": 1.25},
      {"measurement": "relative viability", "setting": "[8]; first compound 0.253 µM", "result": 1.06},
      {"measurement": "relative viability", "setting": "[8]; first compound 0.8 µM", "result": 1.26},
      {"measurement": "relative viability", "setting": "[8]; first compound 2.53 µM", "result": 0.941},
      {"measurement": "relative viability", "setting": "[8]; first compound 8 µM", "result": 1.07},
      {"measurement": "relative viability", "setting": "[9]; first compound 0.08 µM", "result": 1.12},
      {"measurement": "relative viability", "setting": "[9]; first compound 0.253 µM", "result": 1.49},
      {"measurement": "relative viability", "setting": "[9]; first compound 0.8 µM", "result": 1.15},
      {"measurement": "relative viability", "setting": "[9]; first compound 2.53 µM", "result": 0.997},
      {"measurement": "relative viability", "setting": "[9]; first compound 8 µM", "result": 1.12},
      {"measurement": "relative viability", "setting": "[10]; first compound 0.08 µM", "result": 0.854},
      {"measurement": "relative viability", "setting": "[10]; first compound 0.253 µM", "result": 1.16},
      {"measurement": "relative viability", "setting": "[10]; first compound 0.8 µM", "result": 1},
      {"measurement": "relative viability", "setting": "[10]; first compound 2.53 µM", "result": 0.876},
      {"measurement": "relative viability", "setting": "[10]; first compound 8 µM", "result": 1.13},
      {"measurement": "relative viability", "setting": "[11]; first compound 0.253 µM", "result": 0.61},
      {"measurement": "relative viability", "setting": "[11]; first compound 0.8 µM", "result": 0.502},
      {"measurement": "relative viability", "setting": "[11]; first compound 2.53 µM", "result": 0.535},
      {"measurement": "relative viability", "setting": "[11]; first compound 8 µM", "result": 0.516},
      {"measurement": "relative viability", "setting": "[12]; first compound 0.08 µM", "result": 0.739},
      {"measurement": "relative viability", "setting": "[12]; first compound 0.253 µM", "result": 0.683},
      {"measurement": "relative viability", "setting": "[12]; first compound 0.8 µM", "result": 0.687},
      {"measurement": "relative viability", "setting": "[12]; first compound 2.53 µM", "result": 0.799},
      {"measurement": "relative viability", "setting": "[12]; first compound 8 µM", "result": 0.859},
      {"measurement": "relative viability", "setting": "[13]; first compound 0.08 µM", "result": 1.17},
      {"measurement": "relative viability", "setting": "[13]; first compound 0.253 µM", "result": 1.22},
      {"measurement": "relative viability", "setting": "[13]; first compound 0.8 µM", "result": 1.19},
      {"measurement": "relative viability", "setting": "[13]; first compound 2.53 µM", "result": 1.12},
      {"measurement": "relative viability", "setting": "[13]; first compound 8 µM", "result": 1.11},
      {"measurement": "relative viability", "setting": "[14]; first compound 0.08 µM", "result": 1.1},
      {"measurement": "relative viability", "setting": "[14]; first compound 0.253 µM", "result": 1.03},
      {"measurement": "relative viability", "setting": "[14]; first compound 0.8 µM", "result": 0.927},
      {"measurement": "relative viability", "setting": "[14]; first compound 2.53 µM", "result": 0.952},
      {"measurement": "relative viability", "setting": "[14]; first compound 8 µM", "result": 1.01},
      {"measurement": "relative viability", "setting": "[15]; first compound 0.08 µM", "result": 0.878},
      {"measurement": "relative viability", "setting": "[15]; first compound 0.253 µM", "result": 0.924},
      {"measurement": "relative viability", "setting": "[15]; first compound 0.8 µM", "result": 0.85},
      {"measurement": "relative viability", "setting": "[15]; first compound 2.53 µM", "result": 0.822},
      {"measurement": "relative viability", "setting": "[15]; first compound 8 µM", "result": 0.768},
      {"measurement": "relative viability", "setting": "[16]; first compound 0.08 µM", "result": 1.3},
      {"measurement": "relative viability", "setting": "[16]; first compound 0.253 µM", "result": 1.16},
      {"measurement": "relative viability", "setting": "[16]; first compound 0.8 µM", "result": 1.16},
      {"measurement": "relative viability", "setting": "[16]; first compound 2.53 µM", "result": 1.03},
      {"measurement": "relative viability", "setting": "[16]; first compound 8 µM", "result": 1.35},
      {"measurement": "relative viability", "setting": "[17]; first compound 0.08 µM", "result": 0.507},
      {"measurement": "relative viability", "setting": "[17]; first compound 0.253 µM", "result": 0.473},
      {"measurement": "relative viability", "setting": "[17]; first compound 0.8 µM", "result": 0.55},
      {"measurement": "relative viability", "setting": "[17]; first compound 2.53 µM", "result": 0.527},
      {"measurement": "relative viability", "setting": "[17]; first compound 8 µM", "result": 0.591},
      {"measurement": "relative viability", "setting": "[18]; first compound 0.08 µM", "result": 1.14},
      {"measurement": "relative viability", "setting": "[18]; first compound 0.253 µM", "result": 1.22},
      {"measurement": "relative viability", "setting": "[18]; first compound 0.8 µM", "result": 1.27},
      {"measurement": "relative viability", "setting": "[18]; first compound 2.53 µM", "result": 0.952},
      {"measurement": "relative viability", "setting": "[18]; first compound 8 µM", "result": 0.918},
      {"measurement": "relative viability", "setting": "[19]; first compound 0.08 µM", "result": 1.12},
      {"measurement": "relative viability", "setting": "[19]; first compound 0.253 µM", "result": 1.16},
      {"measurement": "relative viability", "setting": "[19]; first compound 0.8 µM", "result": 0.956},
      {"measurement": "relative viability", "setting": "[19]; first compound 2.53 µM", "result": 1.08},
      {"measurement": "relative viability", "setting": "[19]; first compound 8 µM", "result": 1.05}
    ]}
  ]
}
